Assay results as given in the NIST ThermoML archive (doi:10.1021/je800157v).

Experiment: xn = mol fraction of the nth substance listed
Conditions: 101 kPa, Liquid

CCC(C)O (stereo unspecified) [butan-2-ol] + c1ccccc1
mass density [kg/m3]
Conditions | 288.15 K | 293.15 K | 298.15 K | 303.15 K | 308.15 K | 313.15 K
x1 = 0.0511 | 879.01 | 873.67 | 868.33 | 862.98 | 857.61 | 852.24
x1 = 0.0995 | 874.6 | 869.29 | 863.96 | 858.62 | 853.25 | 847.89
x1 = 0.1508 | 870.04 | 864.77 | 859.48 | 854.17 | 848.83 | 843.48
x1 = 0.2013 | 865.76 | 860.54 | 855.3 | 850.02 | 844.72 | 839.39
x1 = 0.2482 | 861.91 | 856.74 | 851.54 | 846.3 | 841.03 | 835.75
x1 = 0.2999 | 857.8 | 852.69 | 847.54 | 842.35 | 837.13 | 831.88
x1 = 0.3486 | 854.03 | 848.96 | 843.86 | 838.72 | 833.54 | 828.34
x1 = 0.3995 | 850.21 | 845.2 | 840.14 | 835.05 | 829.92 | 824.76
x1 = 0.4509 | 846.44 | 841.48 | 836.49 | 831.44 | 826.35 | 821.21
x1 = 0.5003 | 842.93 | 838.02 | 833.08 | 828.08 | 823.04 | 817.96
x1 = 0.5498 | 839.48 | 834.64 | 829.75 | 824.82 | 819.82 | 814.8
x1 = 0.5953 | 836.41 | 831.62 | 826.79 | 821.91 | 816.96 | 811.96
x1 = 0.6487 | 832.84 | 828.13 | 823.37 | 818.56 | 813.68 | 808.75
x1 = 0.7006 | 829.46 | 824.83 | 820.15 | 815.4 | 810.59 | 805.73
x1 = 0.7493 | 826.32 | 821.78 | 817.17 | 812.5 | 807.75 | 802.95
x1 = 0.802 | 822.97 | 818.51 | 814 | 809.41 | 804.74 | 800.01
x1 = 0.8501 | 819.96 | 815.6 | 811.17 | 806.66 | 802.07 | 797.4
x1 = 0.9003 | 816.84 | 812.58 | 808.25 | 803.84 | 799.34 | 794.77
x1 = 0.9206 | 815.57 | 811.36 | 807.07 | 802.7 | 798.25 | 793.72
x1 = 0.9479 | 813.92 | 809.76 | 804.85 | 801.21 | 796.18 | 791.73
x1 = 1 | 810.64 | 806.59 | 802.47 | 798.27 | 793.97 | 789.59
